Experimental data reported in article PMC11420065 (Molecular Psychiatry, 2024).

Experiments:
[1] = test system: D-myo-inositol 1 monophosphate (IP1); assay: IP1 levels in frontal cortex of treated mice (IP-One HTRF); settings: 1 h
Experimental: C57BL/6 wild-type males, sourced from JAX farms, 11 weeks of age at the time of experiment, were housed in groups of up to five littermates with food and water ad libitum in a vivarium with a 12 h light/dark cycle at 23 °C. Animals were allowed to get accustomed to the vivarium at least 1 week prior to the experiment. […] All efforts were made to minimize animal suffering and the number of animals used.
Briefly, frontal cortices were harvested and homogenized in a 10 µL per 1 mg of tissue solution consisting of 10% IP-One Gq Kit Lysis and Detection Buffer in Stimulation Buffer. The clarified homogenates (17,000 × g for 15 min) were plated in duplicate by sequential addition of 2 µL to a 18 µL mix of detection reagents in Lysis and Detection Buffer.
The mice used in the studies came from the same colony and were split randomly between the experimental groups. The investigators were blinded to group allocation during compounds administration to mice. Data are presented as mean ± SEM of 5 mice for each treated group.
Data are normalized in fold of IP1 production in vehicle-treated mice (n = 5 animals per treatment condition; one-way ANOVA followed by Dunnett’s post hoc: compared to vehicle at 1h: *p < 0.1 and **p < 0.01 compared to vehicle).

human 5-HT2AR [2] = molecular target: T1, human 5-HT2AR (Homo sapiens, UniProt P28223); assay: EMTA ebBRET biosensor, agonist mode, Gαi/o/z family (Rap1GAP-RlucII/rGFP-CAAX); settings: for Emax (%) ± SEM: normalized as % response of 5-HT, NA: no activity
Experimental: (§1) For recruitment of the β-arrestins, cells were transfected with the receptor, β-arrestin1-RlucII or β-arrestin2-RlucII, GRK2 and rGFP-CAAX.
(§2) For in vitro experiments, curves fitting was conducted using GraphPad Prism 9 (version 9.0.0). Concentration response curves were obtained using a three-parameter logistic nonlinear regression model and the results are expressed as mean ± SEM of at least three independent experiments. […] Ligand-promoted BRET (ΔBRET) was determined by subtracting the BRET ratio of the vehicle condition from the BRET ratio of the ligand-treated conditions.

human 5-HT2AR [3] = molecular target: T1, human 5-HT2AR; assay: EMTA ebBRET biosensor, agonist mode, β-arrestin recruitment; settings: baseline vs maximal response, words
Experimental: as §1, §2

human 5-HT2AR [4] = molecular target: T1, human 5-HT2AR; assay: EMTA ebBRET biosensor, agonist mode, Gαq family (p63-RlucII/rGFP-CAAX); settings: normalized as % response of 5-HT, NA: no activity
Experimental: as §1, §2

human 5-HT2AR [5] = molecular target: T1, human 5-HT2AR
Experimental: as §1, §2

T1 sequence (P28223 whole entry): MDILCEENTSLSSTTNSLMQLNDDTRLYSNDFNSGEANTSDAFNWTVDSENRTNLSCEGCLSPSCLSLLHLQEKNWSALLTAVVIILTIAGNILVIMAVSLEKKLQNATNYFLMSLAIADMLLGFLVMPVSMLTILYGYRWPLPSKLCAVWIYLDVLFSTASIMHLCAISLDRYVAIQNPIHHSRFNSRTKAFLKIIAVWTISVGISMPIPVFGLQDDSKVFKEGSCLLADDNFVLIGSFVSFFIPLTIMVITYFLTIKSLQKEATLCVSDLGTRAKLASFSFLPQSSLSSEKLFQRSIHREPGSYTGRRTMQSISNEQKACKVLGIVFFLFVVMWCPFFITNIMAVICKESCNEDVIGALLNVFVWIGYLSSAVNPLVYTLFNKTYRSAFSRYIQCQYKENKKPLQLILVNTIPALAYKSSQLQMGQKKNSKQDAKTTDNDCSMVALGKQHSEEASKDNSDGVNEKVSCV

Structure (SMILES)	reduction in IP1 ([1]; 3 mg/Kg i.p., vs vehicle) [%]	activation at Gαi1 and Gαz (human 5-HT2AR [2])	increase in IP1 levels compared to the vehicle condition ([1]; 2 mg/Kg i.p.) [%]	recruitment of β-arrestin1 (human 5-HT2AR [3])	Emax (%) ± SEM (human 5-HT2AR [2]; Gαi1) [%]	Emax (%) ± SEM (human 5-HT2AR [2]; Gαi2) [%]	Emax (%) ± SEM (human 5-HT2AR [2]; Gαi3) [%]	Emax (%) ± SEM (human 5-HT2AR [2]; GαoA) [%]	Emax (%) ± SEM (human 5-HT2AR [2]; GαoB) [%]	Emax (%) ± SEM (human 5-HT2AR [2]; Gαz) [%]	activation at the Gαi/o/z family (human 5-HT2AR [2]; agonist mode, baseline vs maximal response, words)	Emax (%) ± SEM (human 5-HT2AR [4]; Gα11) [%]	Emax (%) ± SEM (human 5-HT2AR [4]; Gα14) [%]	Emax (%) ± SEM (human 5-HT2AR [4]; Gα15) [%]	Emax (%) ± SEM (human 5-HT2AR [4]; Gαq) [%]	% inhibition ± SEM (human 5-HT2AR [5]) [%]
Cc1nc2n(c(=O)c1CCN1CCC(c3noc4cc(F)ccc34)CC1)CCCC2 [Risperidone, risperidone]	9.2 ± 1.2	–	–	–	–	–	–	–	–	–	–	–	–	–	–	–
O=C1CCc2ccc(OCCCCN3CCN(c4cccc(Cl)c4Cl)CC3)cc2N1 [Aripiprazole, aripiprazole]	–	very weak yet statistically significant activation	10.5 ± 1.6	very weak yet statistically significant recruitment	–	–	–	–	–	–	–	–	–	–	–	–
CN(C)C(=O)N[C@H]1CC[C@H](CCN2CCN(c3cccc(Cl)c3Cl)CC2)CC1 [Cariprazine, cariprazine]	–	–	–	did not	12.72 ± 3.42	11.72 ± 2.50	16.05 ± 2.57	11.59 ± 2.44	4.32 ± 2.16	9.02 ± 0.88	did not show statistically significant activation	70.72 ± 4.97	68.10 ± 3.05	13.93 ± 0.53	67.99 ± 4.29	> 50
